Test results published in patent US10047074B2, “Pharmaceutical compound” (IOmet Pharma Ltd., priority 2014, dated 2018).

Columns and labels:
[1] = molecular target: T1, TDO (A172) (Homo sapiens, UniProt P48775); assay: A172 Kynurenine cell based assay; conditions: A172 human glioblastoma cells expressing TDO; kynurenine production, 48 hours
T1 construct: This assay utilised cancer cells which expressed either TDO (A172) or IDO (SKOV3); endogenous in cells; host or cells: A172 (human glioblastoma)
T1 sequence (P48775 whole entry): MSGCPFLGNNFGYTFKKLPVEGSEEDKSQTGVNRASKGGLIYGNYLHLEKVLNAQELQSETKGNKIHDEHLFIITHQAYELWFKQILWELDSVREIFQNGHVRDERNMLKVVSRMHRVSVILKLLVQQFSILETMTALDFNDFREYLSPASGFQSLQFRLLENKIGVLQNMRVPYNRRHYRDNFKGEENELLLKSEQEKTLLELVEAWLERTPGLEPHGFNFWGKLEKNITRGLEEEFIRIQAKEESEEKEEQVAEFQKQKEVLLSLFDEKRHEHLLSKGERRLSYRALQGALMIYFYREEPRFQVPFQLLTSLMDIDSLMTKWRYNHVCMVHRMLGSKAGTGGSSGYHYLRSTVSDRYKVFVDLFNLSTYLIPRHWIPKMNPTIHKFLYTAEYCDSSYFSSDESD
Description: (§1) Exemplary compounds of the invention were prepared, and tested to determine their effect as TDO and/or IDO inhibitors. Two different assays were employed: 1. a cell-based assay for detecting the effect of test compounds on kynurenine production in two different cancer cell types. This assay utilised cancer cells which expressed either TDO (A172) or IDO (SKOV3) and as such was used as a means of testing compound activity at these two enzymes in a cell-based context. 2. a TDO and IDO biochemical coupled assay which utilised recombinantly produced and purified TDO and IDO enzymes in combination with the enzyme formamidase. This coupled enzyme system allowed conversion of N-formylkynurenine produced by TDO or IDO activity to kynurenine which was then quantified by fluorescence following addition of Erhlich's Reagent The protocols for these are set out below.
(§2) Cell Based Assay for Detection of Kynurenine Produced by TDO and/or IDO
(§3) A172 (human glioblastoma) and SKOV3 (human ovarian adenocarcinoma) cells were seeded in a 96 well plate at 30,000 or 40,000 cells per well respectively in phenol red-free RPMI supplemented with 10% FCS, 2 mM L-glutamine and 500 µM L-tryptophan. IDO expression was induced in the SKOV3 cells by the addition of 500 ng/ml IFN-γ. Cells were incubated at 37° C. with or without the addition of test compound. After 48 hours, the cells were removed by centrifugation and Erhlich's reagent was added to the supernatant. The Erhlich's reagent was incubated for 5 minutes before the absorbance was read at 490 nm.

[2] = molecular target: T2, IDO (SKOV3) (Homo sapiens, UniProt P14902); assay: SKOV3 Kynurenine cell based assay; conditions: SKOV3 human ovarian adenocarcinoma cells, IDO induced by IFN-γ; kynurenine production, 48 hours
T2 construct: IDO expression was induced in the SKOV3 cells by the addition of 500 ng/ml IFN-γ; endogenous in cells; host or cells: SKOV3 (human ovarian adenocarcinoma), IFN-γ induced
T2 sequence (P14902 whole entry): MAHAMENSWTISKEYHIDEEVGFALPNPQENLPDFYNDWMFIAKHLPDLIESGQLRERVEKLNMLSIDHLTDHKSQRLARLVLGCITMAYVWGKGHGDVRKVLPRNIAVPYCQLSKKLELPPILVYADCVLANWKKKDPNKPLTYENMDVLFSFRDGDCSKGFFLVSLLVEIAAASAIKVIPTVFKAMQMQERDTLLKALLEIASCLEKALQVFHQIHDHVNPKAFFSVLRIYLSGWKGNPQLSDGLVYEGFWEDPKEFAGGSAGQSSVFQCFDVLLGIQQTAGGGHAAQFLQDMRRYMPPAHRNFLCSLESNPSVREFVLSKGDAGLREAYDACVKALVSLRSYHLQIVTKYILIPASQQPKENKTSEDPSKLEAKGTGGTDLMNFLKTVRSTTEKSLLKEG
Description: as §1, §2
as §3, with “supernatant.” for “supernatant. The Erhlich's reagent was incubated for 5 minutes before the absorbance was read at 490 nm.”

SMILES	A172 Kynurenine cell based assay pIC50 [1]	SKOV3 Kynurenine cell based assay pIC50 [2]
O=C(Cc1ccccc1)Nc1oncc1-c1ccccc1 [Compound 19]	+ (+ = pIC50 4.00-4.49)	++ (++ = pIC50 4.50-5.49)
O=C(Nc1nnnn1-c1ccccc1)c1ccccc1 [Compound 70]	++ (++ = pIC50 4.50-5.49)	++ (++ = pIC50 4.50-5.49)
O=S(=O)(Nc1cnoc1-c1ccccc1)c1cc(Cl)ccc1Cl [Compound 54]	+ (+ = pIC50 4.00-4.49)	++ (++ = pIC50 4.50-5.49)
O=C(CCO)Nc1oncc1-c1ccccc1 [Compound 41]	+++ (+++ = pIC50 ≥ 5.50)	++ (++ = pIC50 4.50-5.49)
O=C(Nc1oncc1-c1ccccc1)C1CC1 [Compound 27]	++ (++ = pIC50 4.50-5.49)	++ (++ = pIC50 4.50-5.49)
CC(C)S(=O)(=O)Nc1oncc1-c1ccccc1 [Compound 30]	++ (++ = pIC50 4.50-5.49)	+ (+ = pIC50 4.00-4.49)
CN1CCC(C(=O)Nc2oncc2-c2ccccc2)CC1 [Compound 36]	++ (++ = pIC50 4.50-5.49)	+ (+ = pIC50 4.00-4.49)
O=S(=O)(CC1CCOCC1)Nc1oncc1-c1ccccc1 [Compound 32]	+/− (+/− = pIC50 < 4.00)	+ (+ = pIC50 4.00-4.49)
O=S(=O)(Nc1oncc1-c1ccccc1)c1cccnc1 [Compound 59]	+/− (+/− = pIC50 < 4.00)	+ (+ = pIC50 4.00-4.49)
O=S(=O)(Nc1cncn1-c1ccccc1)c1ccccc1 [Compound 79]	+/− (+/− = pIC50 < 4.00)	++ (++ = pIC50 4.50-5.49)
O=C(CC1CCCCC1)Nc1oncc1-c1ccccc1 [Compound 24]	++ (++ = pIC50 4.50-5.49)	++ (++ = pIC50 4.50-5.49)
CN1CCCCC1C(=O)Nc1oncc1-c1ccccc1 (centres unmarked) [Compound 61]	+ (+ = pIC50 4.00-4.49)	+/− (+/− = pIC50 < 4.00)
CC(C)CS(=O)(=O)Nc1oncc1-c1ccccc1 [Compound 31]	+/− (+/− = pIC50 < 4.00)	++ (++ = pIC50 4.50-5.49)
O=C(Nc1oncc1-c1ccccc1)C(O)c1ccccc1 (centres unmarked) [Compound 76]	++ (++ = pIC50 4.50-5.49)	+ (+ = pIC50 4.00-4.49)
CCOC(=O)CC(=O)Nc1oncc1-c1ccccc1 [Compound 43]	+++ (+++ = pIC50 ≥ 5.50)	++ (++ = pIC50 4.50-5.49)
CS(=O)(=O)N1CCC(C(=O)Nc2oncc2-c2ccccc2)CC1 [Compound 38]	++ (++ = pIC50 4.50-5.49)	+ (+ = pIC50 4.00-4.49)
OCCCNc1oncc1-c1ccccc1 [Compound 42]	+++ (+++ = pIC50 ≥ 5.50)	+ (+ = pIC50 4.00-4.49)
CNC(=O)CCC(=O)Nc1oncc1-c1ccccc1 [Compound 65]	+++ (+++ = pIC50 ≥ 5.50)	++ (++ = pIC50 4.50-5.49)
CN(C)C(=O)CCC(=O)Nc1oncc1-c1ccccc1 [Compound 58]	++ (++ = pIC50 4.50-5.49)	+ (+ = pIC50 4.00-4.49)
CN(CCC(=O)Nc1oncc1-c1ccccc1)S(C)(=O)=O [Compound 47]	++ (++ = pIC50 4.50-5.49)	+ (+ = pIC50 4.00-4.49)
O=S(=O)(Cc1ccccc1)Nc1oncc1-c1ccccc1 [Compound 29]	+ (+ = pIC50 4.00-4.49)	++ (++ = pIC50 4.50-5.49)
c1ccc(-n2nnnc2NCC2CCCCC2)cc1 [Compound 52]	+ (+ = pIC50 4.00-4.49)	+++ (+++ = pIC50 ≥ 5.50)
CC(C)(O)C(=O)Nc1oncc1-c1ccccc1 [Compound 64]	++ (++ = pIC50 4.50-5.49)	+ (+ = pIC50 4.00-4.49)
O=S(=O)(Nc1cnoc1-c1ccccc1)c1ccc2ccccc2c1 [Compound 53]	+ (+ = pIC50 4.00-4.49)	++ (++ = pIC50 4.50-5.49)
O=C(Nc1oncc1-c1ccccc1)C1CCCCN1 (centres unmarked) [Compound 44]	+++ (+++ = pIC50 ≥ 5.50)	++ (++ = pIC50 4.50-5.49)

Now from value to molecule:

A172 Kynurenine cell based assay pIC50 [1]	SKOV3 Kynurenine cell based assay pIC50 [2]	SMILES
+++ (+++ = pIC50 ≥ 5.50)	++ (++ = pIC50 4.50-5.49)	Cc1ccc(-c2cnoc2N)cc1 [Compound 3]
++ (++ = pIC50 4.50-5.49)	+/− (+/− = pIC50 < 4.00)	Cc1noc(N)c1-c1ccc(F)cc1 [Compound 6]
++ (++ = pIC50 4.50-5.49)	+ (+ = pIC50 4.00-4.49)	Nc1oncc1-c1ccncc1 [Compound 46]
++ (++ = pIC50 4.50-5.49)	+ (+ = pIC50 4.00-4.49)	CNCC(=O)Nc1oncc1-c1ccccc1 [Compound 71]
+++ (+++ = pIC50 ≥ 5.50)	++ (++ = pIC50 4.50-5.49)	CCOC(=O)CCC(=O)Nc1oncc1-c1ccccc1 [Compound 28]
++ (++ = pIC50 4.50-5.49)	++ (++ = pIC50 4.50-5.49)	CNc1oncc1-c1ccccc1 [Compound 21]
+/− (+/− = pIC50 < 4.00)	++ (++ = pIC50 4.50-5.49)	CC(C)(C)C(=O)Nc1oncc1-c1ccc(F)cc1 [Compound 8]
+++ (+++ = pIC50 ≥ 5.50)	+ (+ = pIC50 4.00-4.49)	NCCNc1oncc1-c1ccccc1 [Compound 82]
++ (++ = pIC50 4.50-5.49)	++ (++ = pIC50 4.50-5.49)	Nc1oncc1-c1ccccc1F [Compound 20]
++ (++ = pIC50 4.50-5.49)	++ (++ = pIC50 4.50-5.49)	COc1ccccc1-c1cnoc1-c1ccccc1 [Compound 51]
++ (++ = pIC50 4.50-5.49)	+ (+ = pIC50 4.00-4.49)	Nc1oncc1-c1ccccc1CCO [Compound 78]
++ (++ = pIC50 4.50-5.49)	++ (++ = pIC50 4.50-5.49)	Nc1oncc1-c1ccc(F)cc1F [Compound 14]
++ (++ = pIC50 4.50-5.49)	+/− (+/− = pIC50 < 4.00)	Oc1oncc1-c1ccccc1 [Compound 23]
+++ (+++ = pIC50 ≥ 5.50)	++ (++ = pIC50 4.50-5.49)	OCCNc1oncc1-c1ccccc1 [Compound 57]
+++ (+++ = pIC50 ≥ 5.50)	+ (+ = pIC50 4.00-4.49)	CCOC(=O)C(=O)Nc1oncc1-c1ccccc1 [Compound 45]
